59 molecules from patent US20050288347A1, “Certain triazole-based compounds, compositions, and uses thereof” (priority 2004, published 2005) can be followed below.

“Also recorded” adds a separate entry of the source.

In one test the target is protein kinase. Nature of the test: HTS ATP-utilizing enzyme assay, off-chip mobility-shift format (Caliper HTS 250). In kind it is biochemical, human. Conditions: kinase(s) for which the compound exhibits protein kinase inhibitory activity; test compound 10 μM; active = greater than three-sigma from the mean activity of inactive compounds. The procedure, abridged:
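Kinase reactions ran 2.5 h at 20 to 22 °C with test compound at 10 μM, in a HEPES pH 7.5 master buffer containing Triton X-100 and BSA. Peptide substrate and phosphorylated product separated by mobility shift; inhibition normalized to DMSO (0%) and EDTA (100%) controls, with three-sigma thresholds for hits.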
In the case of `O=[N+]([O-])c1ccc(OCc2nnc(S)n2-c2ccccc2)cc1` [5-((4-nitrophenoxy)methyl)-4-phenyl-4H-1,2,4-triazole-3-thiol], the Kinase entry is “FLT-3; also recorded: PDGFRR-α”.

As to `C=C(C)Cn1c(SCC(=O)O)nnc1-c1ccc(OC)cc1`, the Kinase entry is given as “MSK1”.

`COC(=O)c1sc(NC(=O)CSc2nnc(-c3ccc(NS(C)(=O)=O)cc3)n2C)nc1C`: the Kinase result is given as “GSK3-β; also recorded: GSK3-α”.

For the molecule `COc1ccc(NCc2nnc(SCC(=O)Nc3ncc(C)s3)n2-c2ccccc2)cc1`, the Kinase result is “PDGFRR-α and FYN”.

Regarding `CCC(=O)Nc1ccc(C(=O)CSc2nnc(-c3ccc(O)cc3)n2Cc2ccco2)cc1OC`, the Kinase result was “GSK3-β; also recorded: GSK3-α”.

Take `Sc1nnc(CCc2nc3ccccc3[nH]2)n1-c1cccc(Cl)c1`: the Kinase result is listed as “GSK3-α”.

Regarding `COc1ccc(OCc2nnc(SCC(=O)Nc3ccc(C)cc3Br)n2-c2ccccc2)cc1`, the Kinase result is listed as “CDK1”.

`Cn1c(SCC(=O)N2CCCCCC2)nnc1-c1ccc(S(=O)(=O)N2CCCC2)cc1`: the Kinase entry is “c-TAK1”.

For `O=C(CSc1nnc(Cn2nnc(-c3ccccc3)n2)n1-c1ccccc1)Nc1ccccc1`, the Kinase entry is listed as “GSK3-α”.

For `CCn1c(SCC#N)nnc1C1CCCCC1` [2-(5-cyclohexyl-4-ethyl-4H-1,2,4-triazol-3-ylthio)acetonitrile], the Kinase result is “AURORA-A and MSK1”.

In the case of `CCn1c(SCC(=O)OC)nnc1-c1ccccc1` [methyl 2-(4-ethyl-5-phenyl-4H-1,2,4-triazol-3-ylthio)acetate], the Kinase result is given as “MAPKAPK-2”.

For the molecule `Cn1c(SCC(=O)Nc2nccs2)nnc1-c1cc2ccccc2cc1O`, the Kinase entry is “GSK3-β; also recorded: GSK3-α”.

With `COCCCn1c(SCC(=O)N2CCCCC2)nnc1-c1ccc(C(C)(C)C)cc1`, the Kinase result is reported as “CDK5”.

`COc1ccc(NCc2nnc(SCC(=O)Nc3sc4c(c3C#N)CCCC4)n2C)cc1`: the Kinase result is recorded as “DYRK2; also recorded: CDK2-cyclinE”.

As to `O=C(CSc1nnc(-c2ccncc2)n1-c1ccc(F)cc1)Nc1cccc(O)c1`, the Kinase entry was “AURORA-A”.

As to `COCCCn1c(SCC(=O)OCc2ccccc2)nnc1-c1ccc(OC)cc1`, the Kinase entry was “CDK2-cyclinE and MSK1”.

Consider `CCn1c(SCC(=O)N(C(C)C)C(C)C)nnc1-c1cc2ccccc2cc1O`, for which the Kinase result was “c-TAK1”.

Take `Cn1c(S)nnc1CCc1nc2ccccc2[nH]1` [5-(2-(1H-benzo[d]imidazol-2-yl)ethyl)-4-methyl-4H-1,2,4-triazole-3-thiol]: the Kinase entry is listed as “GSK3-α; also recorded: GSK3-β”.

On to `Cn1c(Cn2nnc3ccccc32)nnc1SCC(=O)Nc1nccs1`, for which the Kinase result was “GSK3-β; also recorded: GSK3-α; also recorded: CDK2-cyclinE”.

As for `CCn1c(SCC(=O)N2CCN(c3ccc(OC)cc3)CC2)nnc1-c1ccc(O)cc1`, the Kinase entry is “SYK”.

Turning to `O=C(CSc1nnc[nH]1)N1c2ccccc2Sc2ccccc21` [2-(4H-1,2,4-triazol-3-ylthio)-1-(10H-phenothiazin-10-yl)ethanone], the Kinase entry is listed as “LCK”.

`COc1ccc(-c2nnc(SCC(=O)Nc3cccc(NC(=O)c4ccco4)c3)n2-c2ccccc2)cc1`: the Kinase result was “PRAK and CHEK2 and PKA”.

`CCn1c(SCC(=O)N2CCCC(C)C2)nnc1-c1ccc(S(=O)(=O)N2CCN(C)CC2)cc1` (centres unmarked): the Kinase result is “FYN”.

Regarding `CSCCc1nnc(SCC(=O)O)[nH]1` [2-(5-(2-(methylthio)ethyl)-4H-1,2,4-triazol-3-ylthio)acetic acid], the Kinase result is reported as “GSK3-α; also recorded: GSK3-β”.

As to `COc1ccc(NCc2nnc(SC(C)C(=O)O)n2-c2ccccc2)cc1` (centres unmarked), the Kinase result was “FYN( and PDGFRR-α”.

Take `Cc1cccc(-c2nnc(SCC(=O)c3ccccc3)[nH]2)c1` [1-phenyl-2-(5-m-tolyl-4H-1,2,4-triazol-3-ylthio)ethanone]: the Kinase entry is “FLT-3; also recorded: AURORA-A”.

Regarding `Cc1ccc(-c2nnc(SC(C)C(=O)O)n2-c2ccc(C)cc2)cc1` (centres unmarked) [2-(4,5-dip-tolyl-4H-1,2,4-triazol-3-ylthio)propanoic acid], the Kinase result is “DAPK1”.

Consider `Cn1c(Cn2nnc3ccccc32)nnc1SCC(=O)Nc1cccc(O)c1`, for which the Kinase entry was “GSK3-α”.

As to `CSCCc1nnc(SCC#N)[nH]1` [2-(5-(2-(methylthio)ethyl)-4H-1,2,4-triazol-3-ylthio)acetonitrile], the Kinase result is recorded as “GSK3-α”.

In the case of `Cn1c(COc2cccc3ccccc23)nnc1SCC(=O)O`, the Kinase result is recorded as “CDK2-cyclinA; also recorded: AURORA-A”.

On to `Cn1c(SCC(=O)c2ccc3c(c2)OCCO3)nnc1C1CC1`, for which the Kinase entry was “AURORA-A and FYN”.

`COc1ccc(-c2nnc(SCC(=O)Nc3cccc(NC(=O)C4CCCO4)c3)n2-c2ccccc2)cc1` (centres unmarked): the Kinase result was “PRAK and CHEK2 and PKA”.

`O=C(CSc1nnc(-c2ccc(O)cc2)n1Cc1ccco1)N1c2ccccc2Sc2ccccc21`: the Kinase entry was “GSK3-β and GSK3-α and MSK2”.

As to `Cc1cc(C)nc(SCc2nnc(SCC(=O)Nc3ccccc3)n2-c2ccccc2)n1`, the Kinase result is “MAPKAPK-2”.

The test is the same for the next values; noted with them: test compound 10 μM; active = activity greater than three-sigma from the mean of the predominately inactive population for that enzyme.
For `COc1ccc(NCc2nnc(SCCN3CCCCC3)n2-c2cccc(Cl)c2)cc1`, the “protein kinase against which the compound exhibits inhibitory activity (Table 3)” value is “FYN and PDGFRR-α and FLT-3”.

Consider `CCn1c(COc2ccccc2OC)nnc1SCc1ccc(Cl)cc1`, for which the “protein kinase against which the compound exhibits inhibitory activity (Table 3)” value was “CDK2-cyclinE”.

As to `Cc1cc(C)nc(SCc2nnc(SCCC(=O)O)n2-c2ccccc2)n1`, the “protein kinase against which the compound exhibits inhibitory activity (Table 3)” value is given as “CHEK2”.

Consider `Cc1ccc(NCc2nnc(SCc3ccccc3)n2C)cc1`, for which the “protein kinase against which the compound exhibits inhibitory activity (Table 3)” value was “AURORA-A”.

Take `Fc1ccc(CSc2nnc(-c3cccs3)[nH]2)cc1` [3-(4-fluorobenzylthio)-5-(thiophen-2-yl)-4H-1,2,4-triazole]: the “protein kinase against which the compound exhibits inhibitory activity (Table 3)” value is “AURORA-A; also recorded: FLT-3; also recorded: DYRK2”.

For the molecule `CCSc1nnc(-c2ccncc2)n1CCCOC` [4-(5-(ethylthio)-4-(3-methoxypropyl)-4H-1,2,4-triazol-3-yl)pyridine], the “protein kinase against which the compound exhibits inhibitory activity (Table 3)” value is “AURORA-A”.

With `Cc1nnc(SCc2cccc3ccccc23)[nH]1` [3-methyl-5-(naphthalen-1-ylmethylthio)-4H-1,2,4-triazole], the “protein kinase against which the compound exhibits inhibitory activity (Table 3)” value is “AURORA-A; also recorded: DYRK2; also recorded: GSK3-α”.

As to `CCCCNC(=O)CSc1nnc(-c2ccccc2O)n1-c1ccccc1OC`, the “protein kinase against which the compound exhibits inhibitory activity (Table 3)” value was “INSR and KIT and SYK”.

`Cc1nn(-c2ccccc2)c2sc(-c3nnc(SCCN4CCOCC4)n3C)cc12`: the “protein kinase against which the compound exhibits inhibitory activity (Table 3)” value is reported as “GSK3-α; also recorded: GSK3-β; also recorded: DAPK1”.

With `COc1ccccc1-n1c(SCC(=O)Nc2ccccc2)nnc1-c1ccccc1O`, the “protein kinase against which the compound exhibits inhibitory activity (Table 3)” value is listed as “AURORA-A”.

Turning to `COc1ccc(-n2c(SCCC(=O)O)nnc2-c2ccc(NC(=O)c3ccccc3)cc2)cc1`, the “protein kinase against which the compound exhibits inhibitory activity (Table 3)” value is listed as “CHEK2; also recorded: AURORA-A”.

In the case of `OC(CSc1nnc(-c2cccnc2)[nH]1)C(F)(F)F` (centres unmarked) [1,1,1-trifluoro-3-(5-(pyridin-3-yl)-4H-1,2,4-triazol-3-ylthio)propan-2-ol], the “protein kinase against which the compound exhibits inhibitory activity (Table 3)” value is given as “AURORA-A”.

For the molecule `CCCCSc1nnc(-c2ccc([N+](=O)[O-])cc2)[nH]1` [3-(butylthio)-5-(4-nitrophenyl)-4H-1,2,4-triazole], the “protein kinase against which the compound exhibits inhibitory activity (Table 3)” value was “AURORA-A; also recorded: GSK3-α”.

`Cc1cccc(-c2nnc(SCC(N)=O)[nH]2)c1` [2-(5-m-tolyl-4H-1,2,4-triazol-3-ylthio)acetamide]: the “protein kinase against which the compound exhibits inhibitory activity (Table 3)” value is listed as “CHEK2; also recorded: AURORA-A; also recorded: FLT-3”.

Take `CCn1c(CNc2ccccc2Cl)nnc1SCC(=O)NNC(=O)c1ccc(OC)cc1`: the “protein kinase against which the compound exhibits inhibitory activity (Table 3)” value was “AURORA-A; also recorded: DYRK2”.

In the case of `Cc1nnc(SCc2ccccc2)[nH]1` [3-(benzylthio)-5-methyl-4H-1,2,4-triazole], the “protein kinase against which the compound exhibits inhibitory activity (Table 3)” value is listed as “AURORA-A; also recorded: DYRK2”.

`CCn1c(SCc2ccc(Cl)cc2)nnc1-c1ccc(O)cc1` [4-(5-(4-chlorobenzylthio)-4-ethyl-4H-1,2,4-triazol-3-yl)phenol]: the “protein kinase against which the compound exhibits inhibitory activity (Table 3)” value is “MSK2 and GSK3-β and MSK1”.

Consider `Cc1nnc(SCc2ccccc2)n1Cc1ccc(Cl)c(Cl)c1` [3-(benzylthio)-4-(3,4-dichlorobenzyl)-5-methyl-4H-1,2,4-triazole], for which the “protein kinase against which the compound exhibits inhibitory activity (Table 3)” value is “GSK3-α; also recorded: GSK3-β; also recorded: c-TAK1”.

On to `CCOC(=O)CCSc1nnc(-c2cccc(C(F)(F)F)c2)[nH]1` [ethyl 3-(5-(3-(trifluoromethyl)phenyl)-4H-1,2,4-triazol-3-ylthio)propanoate], for which the “protein kinase against which the compound exhibits inhibitory activity (Table 3)” value is on record as “AURORA-A; also recorded: FLT-3; also recorded: GSK3-β”.

On to `Cc1ccc(NCc2nnc(SCc3ccc(C(C)(C)C)cc3)n2-c2ccc(C)cc2)cc1`, for which the “protein kinase against which the compound exhibits inhibitory activity (Table 3)” value was “AURORA-A and SYK”.

As to `COc1ccc(-n2c(SCCN3CCOCC3)nnc2-c2ccc(O)cc2)cc1`, the “protein kinase against which the compound exhibits inhibitory activity (Table 3)” value is given as “GSK3-α; also recorded: GSK3-β”.

Turning to `COCCCn1c(SCc2ccc(Cl)cc2)nnc1-c1ccc(C(C)(C)C)cc1`, the “protein kinase against which the compound exhibits inhibitory activity (Table 3)” value was “DAPK1”.

Turning to `O=S(=O)(CCSc1nnc(Cc2ccccc2)n1-c1ccccc1)Nc1ccccc1` [2-(5-benzyl-4-phenyl-4H-1,2,4-triazol-3-ylthio)-N-phenylethanesulfonamide], the “protein kinase against which the compound exhibits inhibitory activity (Table 3)” value is “AKT2”.

On to `Clc1cccc(-n2c(SCc3ccccc3)nnc2-c2ccncc2)c1` [4-(5-(benzylthio)-4-(3-chlorophenyl)-4H-1,2,4-triazol-3-yl)pyridine], for which the “protein kinase against which the compound exhibits inhibitory activity (Table 3)” value was “GSK3-β and AURORA-A and CDK1”.

Take `Cc1ccc(C(=O)NNC(=O)CSc2nnc(Cc3ccccc3)n2Cc2ccccc2)cc1`: the “protein kinase against which the compound exhibits inhibitory activity (Table 3)” value is “DAPK-1”.
